Results: patent US9615577B2, “Herbicidally active cyclic dione compounds, or derivatives therefor, substituted by a phenyl which has an alkynyl-containing substituent” (Syngenta Limited, priority 2012, dated 2017)

Experiments:
Format in all cases: in vivo
[1] = test system: Alopecurus myosuroides (ALOMY); test: Test 1A glasshouse assay for herbicidal activity, post-emergence; conditions: 312 h, evaluated after 13 days, read-out: percentage phytotoxicity ALOMY
Outline: (§1)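 Visual % phytotoxicity (0 = no damage, 100 = total damage) scored 13 d after spraying. Pots sown in standard soil; spray applied 1 d post-sowing for pre-emergence, 8 d for post-emergence. Vehicle acetone/water 50:50 + 0.5% Tween 20; glasshouse 24/16 °C, 14 h light, 65% RH, watered twice daily.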

[2] = test system: Amaranthus retroflexus (AMARE); test: as above; conditions: 312 h, evaluated after 13 days, read-out: percentage phytotoxicity AMARE
Outline: as §1

[3] = test system: Echinochloa crus-galli (ECHCG); test: as above; conditions: 312 h, evaluated after 13 days, read-out: percentage phytotoxicity ECHCG
Outline: as §1

Setaria faberi (SETFA) [4] = test: as above; conditions: 312 h, evaluated after 13 days, read-out: percentage phytotoxicity SETFA
Outline: as §1

[5] = test system: Brassica napus (BRSNN, rape); test: Test 1B glasshouse assay for herbicidal activity, pre-emergence; conditions: 480 h, 20 DAA, read-out: percentage phytotoxicity BRSNN
Outline: (§2)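 Plants grown in soil at 20/16° C day/night, 16 h light, 65% humidity; sprayed after 1 day (pre-emergence) or ~12 days (post-emergence) with formulated compound in 0.2% v/v X-77 adjuvant. Visual % phytotoxicity scored 20 DAA (pre) or 15 DAA (post).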

[6] = test system: Triticum aestivum (TRZAW, winter wheat); test: as above; conditions: 480 h, 20 DAA, read-out: percentage phytotoxicity TRZAW
Outline: as §2

[7] = test system: Glycine max (GLXMA, soybean); test: Test 1B glasshouse assay for herbicidal activity, post-emergence; conditions: 360 h; for plant injury at 30 g/ha: 30 g/ha application rate; for plant injury at 125 g/ha: 125 g/ha application rate
Method: (§3) Seeds of a variety of monocotyledonous and dicotyledonous test plants are sown in standard soil in pots. The plants are cultivated for one day (for pre-emergence) or for about 12 days (range=10-13 days) (for post-emergence) under controlled conditions in a glasshouse (warm climate species at 24/18° C., cool climate species at 20/16° C., both at day/night; 16 hours light; 65% humidity).
(§4) An “instant formulation”, known as the “IF50”, containing 50 g/liter (i.e. 5% w/v) of the “technical” (i.e. unformulated) active ingredient is prepared by dissolving the active ingredient in a mixture of organic solvents and emulsifier, details of which are provided in the Table below. This IF50 is then mixed with a small, variable amount of acetone to aid dissolution, before addition of a 0.2% v/v aqueous solution of the adjuvant X-77 (which is a mixture of alkyl aryl polyoxyethylene glycols and free fatty acids in isopropanol, CAS Registry number 11097-66-8), as the aqueous diluent, to form an aqueous spray solution which contains a predetermined concentration of the active ingredient (which varies depending on the application rate of the active ingredient to the plants) and 0.2% v/v of the adjuvant X-77. This aqueous spray solution is then sprayed onto the plants, after one day's cultivation (for pre-emergence) or after about 12 days' cultivation (for post-emergence).
(§5) The test plants are then grown on, in a glasshouse (greenhouse) under controlled conditions (at either 24/18° C. or 20/16° C. (day/night) as mentioned above; 16 hours light; 65% humidity) and are watered twice daily. Either 15 days after application of the herbicide (15 DAA) (for post-emergence), or 20 days after application of the herbicide (20 DAA) (for pre-emergence), the test plants are evaluated visually, and an assessed percentage phytotoxicity score is given for each herbicidal application on each plant species (where 100%=total damage to plant; 0%=no damage to plant).
Warm climate crop plants: Glycine max (GLXMA, soybean).

[8] = test system: Alopecurus myosuroides (ALOMY); test: as above; conditions: 360 h; for pest or weed control at 30 g/ha: 30 g/ha application rate; for pest or weed control at 125 g/ha: 125 g/ha application rate
Method: as §3, §4, §5
(§6) Cool climate (“cool season”) grassy monocotyledonous weeds: Alopecurus myosuroides (ALOMY), Avena fatua (AVEFA), Lolium perenne (LOLPE).

Avena fatua (AVEFA) = test: as above; conditions: 360 h; for pest or weed control at 30 g/ha: 30 g/ha application rate; for pest or weed control at 125 g/ha: 125 g/ha application rate
Method: as §3, §4, §5, §6

Lolium perenne (LOLPE) = test: as above; conditions: 360 h; for pest or weed control at 30 g/ha: 30 g/ha application rate; for pest or weed control at 125 g/ha: 125 g/ha application rate
Method: as §3, §4, §5, §6

[9] = test system: Digitaria sanguinalis (DIGSA); test: as above; conditions: 360 h; for pest or weed control at 30 g/ha: 30 g/ha application rate; for pest or weed control at 125 g/ha: 125 g/ha application rate
Method: as §3, §4, §5
(§7) Warm climate (“warm season”) grassy monocotyledonous weeds: Setaria faberi (SETFA), SORVU (Sorghum bicolor (L.) Moench ssp. Bicolor, or Sorghum vulgare Pers.), Digitaria sanguinalis (DIGSA), Echinochloa crus-galli (ECHCG), and Brachiaria plantaginea (BRAPL).

[10] = test system: SORVU (Sorghum bicolor (L.) Moench ssp. Bicolor, or Sorghum vulgare Pers.); test: as above; conditions: 360 h; for pest or weed control at 30 g/ha: 30 g/ha application rate; for pest or weed control at 125 g/ha: 125 g/ha application rate
Method: as §3, §4, §5, §7

Setaria faberi (SETFA) [11] = test: as above; conditions: 360 h; for pest or weed control at 30 g/ha: 30 g/ha application rate; for pest or weed control at 125 g/ha: 125 g/ha application rate
Method: as §3, §4, §5, §7

[12] = test system: Echinochloa crus-galli (ECHCG); test: as above; conditions: Echinochloa crus-galli; for pest or weed control at 30 g/ha: 30 g/ha application rate; for pest or weed control at 125 g/ha: 125 g/ha application rate
Method: as §3, §4, §5, §7
Note: The herbicidal activity data (e.g. post-emergence) shown above in Biological Example 1B for Comparator compounds X-9 and X-10 is thought likely to have been measured some years ago, probably using a variant of the above-described test method. Also, for the post-emergence activity of X-9 and X-10 it is not currently known exactly how many days after application of the herbicide the phytotoxicity on the plants was measured.

SMILES | pest or weed control at 250 g/ha [1] [%] | pest or weed control at 250 g/ha [2] [%] | pest or weed control at 250 g/ha [3] [%] | pest or weed control at 250 g/ha (Setaria faberi (SETFA) [4]) [%] | plant injury at 30 g/ha [7] [%] | plant injury at 125 g/ha [7] [%] | pest or weed control at 30 g/ha [8] [%] | pest or weed control at 125 g/ha [8] [%] | pest or weed control at 30 g/ha (Avena fatua (AVEFA)) [%] | pest or weed control at 125 g/ha (Avena fatua (AVEFA)) [%] | pest or weed control at 30 g/ha (Lolium perenne (LOLPE)) [%] | pest or weed control at 125 g/ha (Lolium perenne (LOLPE)) [%] | pest or weed control at 30 g/ha [9] [%] | pest or weed control at 125 g/ha [9] [%] | pest or weed control at 30 g/ha [10] [%] | pest or weed control at 125 g/ha [10] [%] | pest or weed control at 30 g/ha (Setaria faberi (SETFA) [11]) [%] | pest or weed control at 125 g/ha (Setaria faberi (SETFA) [11]) [%] | pest or weed control at 30 g/ha [12] [%] | pest or weed control at 125 g/ha [12] [%] | other results
CC#Cc1cc(Cl)c(C2C(=O)C3CCC(C3)C2=O)c(OC)c1 (centres unmarked) [Compound A-12] | 90 to 100 | 0 to 10 | 100 | 100 | 0 | 10 | 10 | 70 | 0 | 30 | 0 | 70 | 100 | 100 | 80 | 100 | 70 | 80 | 90 | 100 | pest or weed control at 62.5 g/ha ([1]; 62.5 g/ha): 80%; pest or weed control at 62.5 g/ha ([2]; 62.5 g/ha): 0%; pest or weed control at 62.5 g/ha ([3]; 62.5 g/ha): 100%; pest or weed control at 62.5 g/ha (Setaria faberi (SETFA) [4]; 62.5 g/ha): 100%; plant injury at 250 g/ha [5]: 20%; plant injury at 250 g/ha [6]: 30%
CC#Cc1cc(C)c(C2C(=O)CC(c3ccccn3)CC2=O)c(C)c1 (centres unmarked) [Compound A-13] | 100 | 60 | 100 | 100 |  | 60 |  | 30 |  | 20 |  | 70 |  | 80 |  | 80 |  | 80 |  | 80 | pest or weed control at 30 g/ha [1]: 70%; pest or weed control at 30 g/ha [2]: 30%; pest or weed control at 30 g/ha [3]: 80%; pest or weed control at 30 g/ha (Setaria faberi (SETFA) [4]): 90%; plant injury at 250 g/ha [5]: 70%; plant injury at 250 g/ha [6]: 20%
CC#Cc1cc(Cl)c(C2C(=O)C3CCC(C3)C2=O)c(OCC)c1 (centres unmarked) [Compound A-16] | 100 | 70 | 100 | 100 | 0 | 30 | 20 | 80 | 0 | 60 | 20 | 70 | 80 | 100 | 80 | 100 | 80 | 100 | 80 | 100 | pest or weed control at 30 g/ha [1]: 90%; pest or weed control at 30 g/ha [2]: 30%; pest or weed control at 30 g/ha [3]: 100%; pest or weed control at 30 g/ha (Setaria faberi (SETFA) [4]): 100%; plant injury at 250 g/ha [5]: 0%; plant injury at 250 g/ha [6]: 0%
CC#Cc1cc(C)c(C2C(=O)C3CCC(C3)C2=O)c(OC)c1 (centres unmarked) [Compound A-10] | 100 | 50 | 100 | 100 | 10 | 20 | 60 | 100 | 20 | 40 | 30 | 80 | 90 | 100 | 100 | 100 | 80 | 100 | 90 | 100 | plant injury at 125 g/ha [5]: 0%; plant injury at 125 g/ha [6]: 20%
CC#Cc1cc(C)c(C2=C(OC(C)=O)CC(c3ccccn3)CC2=O)c(C)c1 (centres unmarked) [Compound A-15] | 100 | 60 | 100 | 100 | 20 | 60 | 70 | 80 | 60 | 80 | 80 | 90 | 90 | 100 | 80 | 100 | 80 | 100 | 80 | 100 | pest or weed control at 30 g/ha [1]: 90%; pest or weed control at 30 g/ha [2]: 0%; pest or weed control at 30 g/ha [3]: 100%; pest or weed control at 30 g/ha (Setaria faberi (SETFA) [4]): 100%; plant injury at 125 g/ha [5]: 80%; plant injury at 125 g/ha [6]: 0%
CC#Cc1cc(C)c(C2C(=O)CC(CC3CCOCC3)CC2=O)c(C)c1 (centres unmarked) [Compound A-9] | 100 | 30 | 100 | 90 | 60 |  | 80 |  | 70 |  | 60 |  | 100 |  | 80 |  | 90 |  | 100 |  | plant injury at 125 g/ha [5]: 80%; plant injury at 125 g/ha [6]: 20%
CC#Cc1ccc(C2C(=O)C(C)(C)OC(C)(C)C2=O)c(C)c1 [Compound A-1] | 90 | 10 | 100 | 70 |  |  |  |  |  |  |  |  |  |  |  |  |  |  |  |  | plant injury at 500 g/ha ([5]; 500 g/ha): 60%; plant injury at 500 g/ha ([6]; 500 g/ha): 40%; plant injury at 60 g/ha ([7]; 60 g/ha application rate): 70%; pest or weed control at 60 g/ha ([8]; 60 g/ha application rate): 80%; pest or weed control at 60 g/ha (Avena fatua (AVEFA); 60 g/ha application rate): 60%; pest or weed control at 60 g/ha (Lolium perenne (LOLPE); 60 g/ha application rate): 80%; pest or weed control at 60 g/ha ([9]; 60 g/ha application rate): 80%; pest or weed control at 60 g/ha ([10]; 60 g/ha application rate): 0%; pest or weed control at 60 g/ha (Setaria faberi (SETFA) [11]; 60 g/ha application rate): 70%; pest or weed control at 60 g/ha ([12]; 60 g/ha application rate): 90%
